Data reported in ChEMBL document CHEMBL4152282, “Synthesis and photodynamic activities of integrin-targeting silicon(IV) phthalocyanine-cRGD conjugates” (Eur J Med Chem, 2018).

What was measured:
[1] = Aggregation behavior of compound in DMF at 1 to 6 uM by UV-vis absorption spectra analysis; assay type: physicochemical
[2] = Dark toxicity against human MCF7 cells with low expression of alphaVbeta3 integrin assessed as decrease in cell viability incubated for 2 to 24 hrs by MTT assay; assay type: cell-based
HT-29 [3] = assay: Photocytotoxicity against human HT-29 cells with high expression of alphaVbeta3 integrin assessed as decrease in cell viability preincubated for 24 hrs followed by red light irradiation and measured after overnight incubation by MTT assay; assay type: functional, cell-based; conditions: HT-29, light or radiation study
[4] = Drug uptake in tumor of KM mouse xenografted with […] cells expressing integrin at 0.5 nmol/g, iv measured after 1 to 24 hrs by fluorescence imaging method; assay type: ADME, organism-based, Neoplasm; conditions: in vivo
HT-29 [5] = assay: Photocytotoxicity against human HT-29 cells with high expression of alphaVbeta3 integrin assessed as decrease in cell viability preincubated for 2 hrs followed by red light irradiation and measured after overnight incubation by MTT assay; assay type: functional, cell-based; conditions: HT-29, light or radiation study
HT-29 [6] = assay: Induction of reactive oxygen species formation in human HT-29 cells with high expression of alphaVbeta3 integrin preincubated for 2 hrs followed by incubation with DCF-DA dye for 30 mins and measured after irradiation by fluorescence assay; assay type: functional, cell-based
[7] = Aggregation behavior of compound in water at 3 uM by UV-vis absorption spectra analysis; assay type: physicochemical; conditions: buffer
HaCaT [8] = assay: Photocytotoxicity against human HaCaT cells assessed as decrease in cell viability preincubated for 24 hrs followed by red light irradiation and measured after overnight incubation by MTT assay; assay type: cell-based; conditions: light or radiation study
HaCaT [9] = assay: Photocytotoxicity against human HaCaT cells assessed as decrease in cell viability preincubated for 2 hrs followed by red light irradiation and measured after overnight incubation by MTT assay; assay type: cell-based; conditions: light or radiation study
Mus musculus [10] = assay: Drug uptake in KM mouse xenografted with […] cells at 0.5 nmol/g, iv measured up to 24 hrs by fluorescence imaging method; assay type: ADME, organism-based; conditions: in vivo
[11] = Selectivity ratio of IC50 for human MCF7 cells with low expression of alphaVbeta3 integrin to IC50 for human HT-29 cells with high expression of alphaVbeta3 integrin preincubated for 24 hrs followed by red light irradiation and measured after overnight incubation by MTT assay; assay type: functional
MCF7 [12] = assay: Photocytotoxicity against human MCF7 cells with low expression of alphaVbeta3 integrin assessed as decrease in cell viability preincubated for 24 hrs followed by red light irradiation and measured after overnight incubation by MTT assay; assay type: functional, cell-based; conditions: MCF7, light or radiation study
MCF7 [13] = assay: Induction of reactive oxygen species formation in human MCF7 cells with […] expression of alphaVbeta3 integrin preincubated for 2 hrs followed by incubation with DCF-DA dye for 30 mins and measured after irradiation by fluorescence assay; assay type: functional, cell-based
[14] = Aggregation behavior of compound in RPMI 1640 medium with 0.05% cremophor EL at 3 uM by UV-vis absorption spectra analysis; assay type: physicochemical
[15] = Selectivity ratio of IC50 for human MCF7 cells with low expression of alphaVbeta3 integrin to IC50 for human HT-29 cells with high expression of alphaVbeta3 integrin preincubated for 2 hrs followed by red light irradiation and measured after overnight incubation by MTT assay; assay type: functional
[16] = Selectivity index, ratio of IC50 for photocytotoxicity against human HaCaT cells to IC50 for photocytotoxicity against human HT-29 cells with high expression of alphaVbeta3 integrin; assay type: toxicity, cell-based; conditions: read-out: Ratio IC50
MCF7 [17] = assay: Photocytotoxicity against human MCF7 cells with low expression of alphaVbeta3 integrin assessed as decrease in cell viability preincubated for 2 hrs followed by red light irradiation and measured after overnight incubation by MTT assay; assay type: functional, cell-based; conditions: MCF7, light or radiation study
H22 [18] = assay: Antitumor activity against […] cells expressing integrin xenografted in KM mouse assessed as tumor growth inhibition at 0.5 nmol/g, iv administered 12 hrs followed by irradiation with laser for 6 mins and measured after 14 days; assay type: functional
[19] = Ratio of drug level in tumor of KM mouse xenografted with […] cells expressing integrin to liver of KM mouse xenografted with […] cells at 0.5 nmol/g, iv measured after 24 hrs; assay type: ADME, organism-based, Tumor/tissue; conditions: in vivo
HT-29 [20] = assay: Induction of reactive oxygen species formation in human HT-29 cells with high expression of alphaVbeta3 integrin preincubated for 2 hrs followed by DCF-DA dye addition and measured after 30 mins in absence of light by fluorescence assay; assay type: cell-based; conditions: ht-29, 0.5 h
[21] = Photostability in DMF assessed as release of singlet oxygen at 4 uM preincubated with DPBF in dark followed by irradiation with red light by DPBF decay assay; assay type: functional
[22] = Drug uptake in human MCF7 cells at 1 uM after 24 hrs by confocal laser scanning microscopic method; assay type: ADME, cell-based; conditions: mcf7, 24 h
[23] = Drug uptake in lysosome of human HT-29 cells at 1 uM incubated for 0.5 hrs by Lyso Tracker red dye-based confocal laser scanning microscopic method; assay type: ADME, subcellular; conditions: ht-29, 0.5 h
H22 [24] = assay: Dark toxicity against […] cells expressing integrin xenografted in KM mouse at 0.5 nmol/g, iv administered 12 hrs measured every other day for 14 days; assay type: organism-based; conditions: in vivo, 336 h
[25] = Ratio of drug level in tumor of KM mouse xenografted with […] cells expressing integrin to kidney of KM mouse xenografted with […] cells at 0.5 nmol/g, iv measured after 24 hrs; assay type: ADME, organism-based, Tumor/tissue; conditions: in vivo
MCF7 [26] = assay: Induction of reactive oxygen species formation in human MCF7 cells with low expression of alphaVbeta3 integrin preincubated for 2 hrs followed by DCF-DA dye addition and measured after 30 mins in absence of light by fluorescence assay; assay type: cell-based; conditions: mcf7, 0.5 h
Mus musculus [27] = assay: Drug uptake in KM mouse xenografted with […] cells at 0.5 nmol/g, iv measured after 24 hrs by fluorescence imaging method; assay type: ADME, organism-based; conditions: in vivo
[28] = Dark toxicity against human HT-29 cells with high expression of alphaVbeta3 integrin assessed as decrease in cell viability incubated for 2 to 24 hrs by MTT assay; assay type: cell-based

SMILES: N=C(N)NCCC[C@@H]1NC(=O)[C@H](Cc2cn(CCOCCOCCO[Si]3(OCCOCCOCCn4cc(C[C@@H]5NC(=O)[C@@H](Cc6ccccc6)NC(=O)[C@H](CC(=O)O)NC(=O)CNC(=O)[C@H](CCCNC(=N)N)NC5=O)nn4)n4c5c6ccccc6c4/N=C4N=C(/N=c6/c7ccccc7/c(n63)=N/C3=NC(=N\5)/c5ccccc53)c3ccccc3\4)nn2)NC(=O)[C@@H](Cc2ccccc2)NC(=O)[C@H](CC(=O)O)NC(=O)CNC1=O (stereo partly drawn)
- Activity [1]: Not Active
- Activity [2]: Non-Toxic
- IC50 (HT-29 [3]): 23 nM
- Drug uptake [4]: Active
- IC50 (HT-29 [5]): 30 nM
- Activity (HT-29 [6]): Dose-dependent effect
- Activity [7]: Not Active
- IC50 (HaCaT [8]): 56 nM
- IC50 (HaCaT [9]): 60 nM
- Drug uptake (Mus musculus [10]): Active
- Ratio IC50 [11]: 2.87
- IC50 (MCF7 [12]): 66 nM
- Activity (MCF7 [13]): Dose-dependent effect
- Activity [14]: Not Active
- Ratio IC50 [15]: 3.33
- selectivity ratio [16]: 2
- IC50 (MCF7 [17]): 100 nM
- TGI (H22 [18]): 75%
- Ratio [19]: 2.1
- Activity (HT-29 [20]): Non-Toxic
- Stability [21]: Unstable
- Drug uptake [22]: Not Active
- Drug uptake [23]: Active
- Activity (H22 [24]): Non-Toxic
- Ratio [25]: 2
- Activity (MCF7 [26]): Non-Toxic
- Drug uptake (Mus musculus [27]): Not Active
- Activity [28]: Non-Toxic
